# US7056355B2, “Hair dye composition and dyeing method” (Kao Corporation, priority 2002, dated 2006)
# Experiment: pKa determination in DMF/water by titration with UV-visible spectra
# Assay type: physicochemical
# Conditions: DMF/water (1/1 by volume) solution, dye 2×10^−5 mol/l
# Procedure: The pKa value is determined in DMF/water (1/1-mixture, by volume) as follows:
# The dye is dissolved in a solution of a DMF/water (1/1; volume ratio) to a final concentration of 2×10^−5 mol/l. After the resulting solution is adjusted to pH 2, using 1.0 mol/l hydrochloric acid, the solution is titrated with an aqueous 1.0 mol/l sodium hydroxide solution. Recording the change of the visible ultra-violet absorption spectrum, the inflection point is determined by regression analysis.
row,pKa,Structure (SMILES)
1,4.2,N#CC1=NN(c2ccccc2)C(=O)C1/N=N/c1ccc(S(N)(=O)=O)cc1 [Dye D-6]
2,5.82,N#CC(/N=N/c1ccc(S(N)(=O)=O)cc1)C(=O)c1ccccc1 [Dye D-14]
3,5.92,Cc1nn2nc(C(C)(C)C)c(/N=N/c3cc(Cl)c(S(N)(=O)=O)cc3Cl)c2[nH]1 [Dye D-17]
4,6.5,CS(=O)(=O)c1ccc(/N=N/c2ccc(O)c3ccccc23)c(C#N)c1 [Dye D-25]
5,7.1,CC(=O)Nc1cc(/N=N/c2ccc(S(C)(=O)=O)cc2C#N)c2ccccc2c1O [Dye D-26]

# Continued, compound first:
row,Structure (SMILES),pKa
1,COc1ccc(/N=N/C2C(=O)N(c3ccccc3)N=C2C#N)cc1 [Dye D-7],4.6
2,COc1ccc(/N=N/C2C(=O)N(c3ccc(S(N)(=O)=O)cc3)N=C2C#N)cc1 [Dye D-15],4.36

# Same assay, conditions: DMF/water (1/1 by volume), dye 2×10^−5 mol/l
row,pka,Structure (SMILES)
1,2.86,N#CC1=NN(c2ccccc2)C(=O)C1/N=N/c1cc(Cl)c(S(N)(=O)=O)cc1Cl [Dye D-18]
2,4.32,CS(=O)(=O)Nc1cccc2c(O)ccc(/N=N/c3ccc([N+](=O)[O-])cc3S(C)(=O)=O)c12 [Dye D-21]
3,6.34,NS(=O)(=O)c1cccc(S(=O)(=O)Nc2cccc3c(O)ccc(/N=N/c4ccc([N+](=O)[O-])cc4)c23)c1 [Dye D-22]
4,5.09,CCOC(=O)Nc1cc(/N=N/c2ccc(S(C)(=O)=O)cc2C#N)c2c(NS(C)(=O)=O)cccc2c1O [Dye D-24]
